28 molecules from patent US20240182465A1 (GENFLEET THERAPEUTICS (SHANGHAI) INC., priority 2021, published 2024) can be followed below.

Where a name gives a salt, the structure may show the parent alone.

For assay [1], the target named is HPK1 (Homo sapiens, UniProt Q92918). Nature of the assay: SLP76 phosphorylation assay (intracellular HPK1 inhibitory activity, p-SLP76 Ser376 sandwich ELISA). Conditions: p-SLP76 IC50(nM), Jurkat, Clone E6-1 cells; 1 h compound pre-incubation, anti-CD3 beads stimulation 20 min; SLP76 phosphorylation at S376.
Target sequence in this assay (Q92918 whole entry): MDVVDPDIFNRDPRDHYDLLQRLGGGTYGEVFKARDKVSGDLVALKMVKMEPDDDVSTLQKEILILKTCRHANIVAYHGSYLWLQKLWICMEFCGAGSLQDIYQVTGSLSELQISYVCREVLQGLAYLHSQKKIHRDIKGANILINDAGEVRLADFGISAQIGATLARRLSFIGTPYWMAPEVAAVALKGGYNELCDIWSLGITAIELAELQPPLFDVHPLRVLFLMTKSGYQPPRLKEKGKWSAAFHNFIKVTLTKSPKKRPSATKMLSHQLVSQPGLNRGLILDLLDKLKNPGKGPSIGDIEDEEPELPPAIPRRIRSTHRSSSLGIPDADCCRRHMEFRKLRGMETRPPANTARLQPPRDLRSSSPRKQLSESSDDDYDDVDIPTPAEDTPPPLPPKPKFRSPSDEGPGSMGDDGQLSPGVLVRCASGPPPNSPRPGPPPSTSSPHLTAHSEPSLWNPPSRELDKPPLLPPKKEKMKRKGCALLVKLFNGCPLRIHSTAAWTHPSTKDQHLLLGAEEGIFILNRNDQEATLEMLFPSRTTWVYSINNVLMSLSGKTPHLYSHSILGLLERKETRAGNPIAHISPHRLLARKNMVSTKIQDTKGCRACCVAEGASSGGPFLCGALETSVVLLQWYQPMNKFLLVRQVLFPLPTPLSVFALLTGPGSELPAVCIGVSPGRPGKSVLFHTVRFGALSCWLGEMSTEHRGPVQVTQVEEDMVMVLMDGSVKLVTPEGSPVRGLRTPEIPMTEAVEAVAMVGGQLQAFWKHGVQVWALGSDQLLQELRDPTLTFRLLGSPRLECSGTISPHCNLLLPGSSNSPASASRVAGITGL
For assay [2], the target named is T1, HPK1 (Homo sapiens, UniProt Q92918).
T1 sequence (Q92918 1-346 limits assumed): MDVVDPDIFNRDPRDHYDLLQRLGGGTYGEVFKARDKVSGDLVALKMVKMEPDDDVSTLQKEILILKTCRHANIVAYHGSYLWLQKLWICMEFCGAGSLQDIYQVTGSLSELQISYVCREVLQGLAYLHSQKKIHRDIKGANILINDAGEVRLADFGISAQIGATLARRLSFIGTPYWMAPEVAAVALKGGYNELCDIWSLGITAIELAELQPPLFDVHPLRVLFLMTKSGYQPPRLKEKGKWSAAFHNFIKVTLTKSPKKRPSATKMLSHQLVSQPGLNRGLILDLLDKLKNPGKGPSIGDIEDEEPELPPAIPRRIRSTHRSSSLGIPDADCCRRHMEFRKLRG
Nature of the assay: HPK1 kinase activity assay (ADP-Glo). The conditions noted are these: HPK1 Kinase activity IC50 (nM), 1 nM HPK1, 10 μM ATP, 0.1 μg/μL MBP. For orientation: ADP-Glo turns the ADP formed in a reaction into a luminescent signal.
Protocol: Preparation of buffer: 1× reaction buffer (40 mM Tris-HCl, 20 mM MgCl2, 0.01% Brij35, 50 μM DTT, 0.1 mg/ml BSA) was prepared using sterile water, which was prepared and used on the day of the experiment.
Preparation of 1000× drug stock plate: a 1000× compound stock plate was prepared. […] The compound stock plate was sealed with a sealing film and stored in a −20° C. refrigerator for later use.
Compound preparation and dosing: the 1000× drug stock plate was taken and melted at room temperature in the dark. Then 5× drug intermediate plate was prepared using reaction buffer and mixed well. 2 μL was transferred from the 5× drug intermediate plate into a 384-well plate, and negative control well and positive control well (in which 2 μL reaction buffer containing 0.5% DMSO was added) were set. Each point was repeated twice.
Preparation and incubation of reaction mixture: HPK1 protein was diluted to a 2.5× working solution with reaction buffer. 4 μL 2.5×HPK1 protein was added to each well containing test compound and positive control well, and 4 μL of reaction buffer without HPK1 protein was added to the negative control well. The obtained mixture was centrifuged at 1000 rpm for 1 min and then incubated in a 20° C. incubator for 15 min. A 2.5× mixed working solution of MBP protein and ATP was prepared with reaction buffer at concentrations of 0.5 μg/μL and 50 PM, respectively. 4 μL of the mixed working solution of MBP and ATP was added to each well, centrifuged at 1000 rpm for 1 min, and then incubated in a 20° C. incubator for 90 min.
ADP-Glo detection and reading plate: 10 μl ADP-Glo was added to each well of the test plate. The resulting mixture was centrifuged at 1000 rpm for 1 min and incubated in a 20° C. incubator for 60 min. Then 10 μL of the final incubation solution was transferred from the test plate to a new 384-well plate. 10 μL of kinase detection reagent was added to each well, centrifuged at 400 g for 1 min, and incubated in a 20° C. incubator for 60 min. Chemiluminescent signals were read by a microplate reader.

For the molecule `CCNC(=O)N1CCc2cc(-c3cnc4[nH]cc(C)c4c3)cc([C@@H]3CCCN3)c2C1` [Compound Z217, (S)—N-ethyl-6-(3-methyl-1H-pyrrolo[2,3-b]pyridin-5-yl)-8-(pyrrolidin-2-yl)-3,4-dihydroisoquinoline-2(1H)-carboxamide], the IC50 turned out to be 133 nM in assay [1] and 0.44 nM in assay [2].

For `CC(C)c1c[nH]c2ncc(-c3cc([C@@H]4CCCN4)c4cnccc4c3)cc12` (single isomer, unassigned) [Compound Z95-2], the IC50 in assay [1] is 623 nM; in assay [2], 1.45 nM.

Turning to `N#CCc1c[nH]c2ncc(-c3cc4c(c([C@@H]5CCCN5)c3)COCC4)cc12` (single isomer, unassigned) [Compound Z101-2], the results for the IC50 in assay [1] and in assay [2] were 111 nM and 0.99 nM, respectively.

On to `Cc1c[nH]c2ncc(-c3cc4c(c([C@@H]5CCCN5)c3)CCN(CC(F)(F)F)C4)cc12` [Compound Z308, (S)-7-(3-methyl-1H-pyrrolo[2,3-b]pyridin-5-yl)-5-(pyrrolidin-2-yl)-2-(2,2,2-trifluoroethyl)-1,2,3,4-tetrahydroisoquinoline], for which the IC50 in assay [1] stood at 441 nM; in assay [2] it was 2.06 nM.

On to `Cc1cc(N2CCc3cc(-c4cnc5[nH]cc(C)c5c4)cc([C@@H]4CCCN4)c3C2)ccn1` [Compound Z320, (S)-6-(3-methyl-1H-pyrrolo[2,3-b]pyridin-5-yl)-2-(2-methylpyridin-4-yl)-8-(pyrrolidin-2-yl)-1,2,3,4-tetrahydroisoquinoline formate], for which the IC50 in assay [1] was found to be 121 nM; in assay [2], 0.73 nM.

As to `Cc1cc(C(=O)N2CCc3cc(-c4cnc5[nH]cc(C)c5c4)cc([C@@H]4CCCN4)c3C2)n(C)n1` [Compound Z355, (S)-(1,3-dimethyl-1H-pyrazol-5-yl)(6-(3-methyl-1H-pyrrolo[2,3-b]pyridin-5-yl)-8-(pyrrolidin-2-yl)-3,4-dihydroisoquinolin-2(1H)-yl)methanone], the IC50 in assay [1] stood at 196 nM; in assay [2], 0.45 nM.

Consider `Cc1ncc(C(=O)N2CCc3cc(-c4cnc5[nH]cc(C)c5c4)cc([C@@H]4CCCN4)c3C2)cn1` [Compound Z328, (S)-[6-(3-methyl-1H-pyrrolo[2,3-b]pyridin-5-yl)-8-[pyrrolidin-2-yl]-3,4-dihydroisoquinolin-2(1H)-yl](2-methylpyrimidin-5-yl)methanone], for which the IC50 is 90.7 nM in assay [1] and 0.33 nM in assay [2].

`CC(C)c1c[nH]c2ncc(-c3cc4c(c([C@@H]5COCCN5)c3)CN(C(=O)C3(O)CC3)CC4)cc12` [Compound Z433, (R)-(1-hydroxycyclopropyl)(6-(3-isopropyl-1H-pyrrolo[2,3-b]pyridin-5-yl)-8-(morpholin-3-yl)-3,4-dihydroisoquinolin-2(1H)-yl)methanone]: the IC50 in assay [1] was 111 nM; in assay [2] it was 0.22 nM.

With `Cc1c[nH]c2ncc(-c3cc([C@@H]4CCCN4)c4cnccc4c3)cc12` (single isomer, unassigned) [Compound Z3-1], the IC50 in assay [1] was greater than 10000 nM; in assay [2], 231 nM.

For the molecule `Cc1ncc(N2CCc3c(cc(-c4cnc5[nH]cc(C)c5c4)cc3[C@@H]3CCCN3)C2)s1` [Compound Z38-1, (S)-7-(3-methyl-1H-pyrrolo[2,3-b]pyridin-5-yl)-2-(2-methylthiazol-5-yl)-5-(pyrrolidin-2-yl)-1,2,3,4-tetrahydroisoquinoline], the IC50 in assay [1] was determined as 719 nM; in assay [2], 2.97 nM.

Regarding `COC1(C(=O)N2CCc3cc(-c4cnc5[nH]cc(C)c5c4)cc([C@@H]4CCCN4)c3C2)CC1` [Compound Z245, (S)-(1-methoxycyclopropyl)(6-(3-methyl-1H-pyrrolo[2,3-b]pyridin-5-yl)-8-(pyrrolidin-2-yl)-3,4-dihydroisoquinolin-2(1H)-yl)methanone], the IC50 in assay [1] is 119 nM; in assay [2], 0.45 nM.

As to `Nc1ncc(-c2cc3c(c([C@@H]4CCCN4)c2)COCC3)cc1-c1cn[nH]c1` (single isomer, unassigned) [Compound Z93-2], the results for the IC50 in assay [1] and in assay [2] were 235 nM and 0.71 nM, respectively.

Take `C[C@@H](C#N)c1c[nH]c2ncc(-c3cc4c(c([C@@H]5CCCN5)c3)COCC4)cc12` (single isomer, unassigned) [Compound Z104-2]: the values for the IC50 in assay [1] and in assay [2] were 197 nM and 0.74 nM, respectively.

For `Cc1ccc(-c2c[nH]c3ncc(-c4cc5c(c([C@@H]6CCCN6)c4)COCC5)cc23)cn1` [Compound Z212, (S)-3-(6-methylpyridin-3-yl)-5-(8-(pyrrolidin-2-yl)isochroman-6-yl)-1H-pyrrolo[2,3-b]pyridine], the IC50 in assay [1] worked out at 909 nM; in assay [2] it was 3.76 nM.

For the molecule `Cc1c[nH]c2ncc(-c3cc4c(c([C@@H]5CCCN5)c3)CN(c3ccncc3)CC4)cc12` [Compound Z291, (S)-6-(3-methyl-1H-pyrrolo[2,3-b]pyridin-5-yl)-2-(pyridin-4-yl)-8-(pyrrolidin-2-yl)-1,2,3,4-tetrahydroisoquinoline], the values for the IC50 in assay [1] and in assay [2] were 162 nM and 0.6 nM, respectively.

As for `Cc1c[nH]c2ncc(-c3cc4c(c([C@@H]5CCCN5)c3)CN(C(=O)c3ccncn3)CC4)cc12` [Compound Z221, (S)-(6-(3-methyl-1H-pyrrolo[2,3-b]pyridin-5-yl)-8-(pyrrolidin-2-yl)-3,4-dihydroisoquinolin-2(1H)-yl) (pyrimidin-4-yl)methanone], the IC50 is 215 nM in assay [1] and 1.27 nM in assay [2].

On to `CCNC(=O)N1CCc2cc(-c3cnc4[nH]cc(C(C)C)c4c3)cc([C@@H]3COCCN3)c2C1` [Compound Z429], for which the IC50 in assay [1] was 159 nM; in assay [2], 0.41 nM.

Regarding `CO[C@H]1CCN(C(=O)N2CCc3cc(-c4cnc5[nH]cc(C)c5c4)cc([C@@H]4CCCN4)c3C2)C1` [Compound Z357-1], the IC50 in assay [1] turned out to be 99.3 nM; in assay [2], 0.31 nM.

Regarding `Cc1c[nH]c2ncc(-c3cc4c(c([C@@H]5CCCN5)c3)COC4)cc12` [Compound Z151-1, (S)-3-methyl-5-(7-(pyrrolidin-2-yl)-1,3-dihydroisobenzofuran-5-yl)-1H-pyrrolo[2,3-b]pyridine], the figures for the 50% inhibitory concentration (IC50) in assay [1] and in assay [2] were 739 nM and 2.52 nM, respectively.

Consider `Cc1c[nH]c2ncc(-c3cc4c(c([C@@H]5CCCN5)c3)CN(C(=O)C3CCCCC3)CC4)cc12` [Compound Z125], for which the IC50 in assay [1] is 301 nM; in assay [2] it was 1.43 nM.

As to `Cc1c[nH]c2ncc(-c3cc4c(c([C@@H]5CCCN5)c3)CCN(CC3CCOCC3)C4)cc12` [Compound Z402, 7-(3-methyl-1H-pyrrolo[2,3-h]pyridin-5-yl)-2-(3,4,5,6-tetrahydro-2H-pyran-4-ylmethyl)-5-[(2S)-tetrahydro-1H-pyrrol-2-yl]-1,2,3,4-tetrahydroisoquinoline], the values for the IC50 in assay [1] and in assay [2] were 454 nM and 1.2 nM, respectively.

For the molecule `Cc1c[nH]c2ncc(-c3cc4c(c([C@@H]5CCCN5)c3)CN(C(=O)C3(O)CCOCC3)CC4)cc12` [Compound Z244, (S)-(4-hydroxytetrahydro-2H-pyran-4-yl)(6-(3-methyl-11H-pyrrolo[2,3-b]pyridin-5-yl)-8-(pyrrolidin-2-yl)-3,4-dihydroisoquinolin-2(1H)-yl)methanone], the values for the IC50 in assay [1] and in assay [2] were 96.6 nM and 0.35 nM, respectively.

For the molecule `Cc1c[nH]c2ncc(-c3cc4c(c([C@@H]5CCCN5)c3)COC3(CC3)C4)cc12` [Compound Z229, (S)-3-methyl-5-(8′-(pyrrolidin-2-yl)spiro[cyclopropane-1,3′-isochroman]-6′-yl)-1H-pyrrolo[2,3-b]pyridine], the IC50 turned out to be 276 nM in assay [1] and 0.46 nM in assay [2].

For the molecule `Cc1c[nH]c2ncc(-c3cc4c(c(C5CCN5)c3)COCC4)cc12` (centres unmarked) [Compound Z232, 5-(8-(azetidin-2-yl)isochroman-6-yl)-3-methyl-1H-pyrrolo[2,3-b]pyridine], the IC50 turned out to be 1660 nM in assay [1] and 20.5 nM in assay [2].

For the molecule `Cc1c[nH]c2ncc(-c3cc([C@@H]4CCCN4)c4ccccc4n3)cc12` [Compound Z136, (S)-2-(3-methyl-1H-pyrrolo[2,3-b]pyridin-5-yl)-4-(pyrrolidin-2-yl)quinoline], the values for the IC50 in assay [1] and in assay [2] were 7910 nM and 31.2 nM, respectively.

On to `Nc1ncc(-c2cc3c(c([C@@H]4CCCN4)c2)COCC3)cc1-c1nccs1` [Compound Z238, (S)-5-(8-(pyrrolidin-2-yl)isochroman-6-yl)-3-(thiazol-2-yl)pyridin-2-amine], for which the IC50 came out at 354 nM in assay [1] and 1.48 nM in assay [2].

As for `Cc1c[nH]c2ncc(-c3cc4c(c([C@@H]5CCCN5)c3)CN(C(=O)c3cnn(C5CC5)c3C)CC4)cc12` [Compound Z346, (S)-(1-cyclopropyl-5-methyl-1H-pyrazol-4-yl)-[6-(3-methyl-1H-pyrrolo[2,3-b]pyridin-5-yl)-8-[pyrrolidin-2-yl]-3,4-dihydroisoquinolin-2(1H)-yl]methanone], the IC50 was determined as 226 nM in assay [1] and 0.43 nM in assay [2].

On to `Cc1c[nH]c2ncc(-c3cc4c(c([C@@H]5CCCN5)c3)CN(C(=O)C(C)(C)O)CC4)cc12` [Compound Z216, (S)-2-hydroxy-2-methyl-1-(6-(3-methyl-11H-pyrrolo[2,3-b]pyridin-5-yl)-8-(pyrrolidin-2-yl)-3,4-dihydroisoquinolin-2(1H)-yl)propan-1-one], for which the results for the IC50 in assay [1] and in assay [2] were 108 nM and 0.41 nM, respectively.

As usually defined, the IC50 is the midpoint of a concentration-inhibition curve. High values mean weaker potency, low ones greater potency.
